Assay in all cases: relative viability (nuclei count vs DMSO), 5 days (fraction); higher = more cells survive
Compound in assay [1]: CC1=NN=C(O1)C2=NN=C(C=C2)N3CCC(CC3)OC4=C(C=CC(=C4)F)Cl + C[C@@H](Oc1cc(-c2cnn(C3CCNCC3)c2)cnc1N)c1c(Cl)ccc(F)c1Cl [Crizotinib] (partner 1 µM)
In short, it runs like this:
(§1)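 Dosing by pin tool came one day after lung cancer cell lines were seeded in 1536-well plates, using either one drug or a fixed anchor-drug dose plus five library-drug doses (not always all listed) in √10 steps. After 5 days, nuclei were counted on 4× images. Relative viability is treated-well nuclei count divided by vehicle-well nuclei count, and values are medians of duplicate plates.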

Compound in the assay “Tosedostat + Olaparib”: CC(C)C[C@@H](C(=O)N[C@H](C(=O)OC1CCCC1)c1ccccc1)[C@H](O)C(=O)NO [Tosedostat] + O=C(c1cc(Cc2n[nH]c(=O)c3ccccc23)ccc1F)N1CCN(C(=O)C2CC2)CC1 [Olaparib] (partner 8 µM)
In short, it runs like this:
as §1

Compound in assay [2]: CC1=NN=C(O1)C2=NN=C(C=C2)N3CCC(CC3)OC4=C(C=CC(=C4)F)Cl + COc1cccc2cc(-c3nc([C@H]4CC[C@H](C(=O)O)CC4)n4ncnc(N)c34)[nH]c12 [OSI-027] (partner 0.5 µM)
In outline:
as §1

Compound in assay [3]: CC1=NN=C(O1)C2=NN=C(C=C2)N3CCC(CC3)OC4=C(C=CC(=C4)F)Cl + CC(=O)Nc1cccc(-n2c(=O)n(C3CC3)c(=O)c3c(Nc4ccc(I)cc4F)n(C)c(=O)c(C)c32)c1 [Trametinib] (partner 0.02 µM)
In short, it runs like this:
as §1

For the cell line Calu-6, the relative viability in assay [1] (first compound 0.253 µM) amounted to 0.485; in assay [1] (first compound 0.8 µM), 0.469; in assay [1] (first compound 2.53 µM) it was 0.483; in assay [1] (first compound 8 µM) it was 0.465; with Tosedostat + Olaparib (first compound 0.02 µM), 0.631; with Tosedostat + Olaparib (first compound 0.06325 µM) it was 0.494. Moreover, the relative viability came to 0.5 in the assay with Tosedostat + Olaparib (first compound 0.2 µM), 0.439 in the assay with Tosedostat + Olaparib (first compound 0.6325 µM) and 0.326 in the assay with Tosedostat + Olaparib (first compound 2 µM).

Consider NCI-H1299, for which the relative viability stood at 0.785 in assay [1] (first compound 0.253 µM); 0.711 in assay [1] (first compound 0.8 µM); 0.756 in assay [1] (first compound 2.53 µM); 0.689 in assay [1] (first compound 8 µM); 1.04 with Tosedostat + Olaparib (first compound 0.02 µM); 0.947 in the assay with Tosedostat + Olaparib (first compound 0.06325 µM). Moreover, the values for the relative viability in the assay with Tosedostat + Olaparib (first compound 0.2 µM), with Tosedostat + Olaparib (first compound 0.6325 µM) and with Tosedostat + Olaparib (first compound 2 µM) were 0.954, 0.864 and 0.835, respectively.

On to ABC-1, for which the relative viability in assay [1] (first compound 0.253 µM) was 0.686; in assay [1] (first compound 0.8 µM), 0.615; in assay [1] (first compound 2.53 µM), 0.426; in assay [1] (first compound 8 µM) it was 0.436; with Tosedostat + Olaparib (first compound 0.02 µM) it was 0.842; with Tosedostat + Olaparib (first compound 0.06325 µM) it was 0.784. Further, the relative viability in the assay with Tosedostat + Olaparib (first compound 0.2 µM) was determined as 0.843; with Tosedostat + Olaparib (first compound 0.6325 µM), 0.848; with Tosedostat + Olaparib (first compound 2 µM) it was 0.491; in assay [2] (first compound 0.253 µM) it was 0.244; in assay [2] (first compound 0.8 µM) it was 0.326; in assay [2] (first compound 2.53 µM), 0.411. Moreover, the relative viability in assay [2] (first compound 8 µM) was 0.47.

Turning to NCI-H1703, the relative viability in assay [1] (first compound 0.253 µM) was found to be 0.728; in assay [1] (first compound 0.8 µM), 0.661; in assay [1] (first compound 2.53 µM) it was 0.764; in assay [1] (first compound 8 µM), 0.611; with Tosedostat + Olaparib (first compound 0.02 µM), 0.45; in the assay with Tosedostat + Olaparib (first compound 0.06325 µM), 0.373. Besides, the relative viability with Tosedostat + Olaparib (first compound 0.2 µM) came out at 0.293; in the assay with Tosedostat + Olaparib (first compound 0.6325 µM), 0.29; with Tosedostat + Olaparib (first compound 2 µM) it was 0.311.

Regarding NCI-H1793, the relative viability stood at 0.884 with Tosedostat + Olaparib (first compound 0.02 µM); 0.879 with Tosedostat + Olaparib (first compound 0.06325 µM); 0.763 in the assay with Tosedostat + Olaparib (first compound 0.2 µM); 0.698 in the assay with Tosedostat + Olaparib (first compound 0.6325 µM); 0.669 in the assay with Tosedostat + Olaparib (first compound 2 µM); 0.253 in assay [2] (first compound 0.253 µM). The relative viability in assay [2] (first compound 0.8 µM) was determined as 0.2; in assay [2] (first compound 2.53 µM), 0.296; in assay [2] (first compound 8 µM) it was 0.276; in assay [3] (first compound 0.253 µM) it was 0.434; in assay [3] (first compound 0.8 µM) it was 0.511; in assay [3] (first compound 2.53 µM), 0.509. Further, the relative viability in assay [3] (first compound 8 µM) worked out at 0.403.

For NCI-H1563, the relative viability in assay [1] (first compound 0.253 µM) was 0.861; in assay [1] (first compound 0.8 µM), 0.858; in assay [1] (first compound 2.53 µM), 0.837; in assay [1] (first compound 8 µM), 0.868; in assay [2] (first compound 0.253 µM) it was 0.772; in assay [2] (first compound 0.8 µM), 0.854. The relative viability in assay [2] (first compound 2.53 µM) amounted to 0.77; in assay [2] (first compound 8 µM) it was 0.834.

Take NCI-H1648: the relative viability with Tosedostat + Olaparib (first compound 0.02 µM) came to 0.799; with Tosedostat + Olaparib (first compound 0.06325 µM) it was 0.644; in the assay with Tosedostat + Olaparib (first compound 0.2 µM), 0.764; with Tosedostat + Olaparib (first compound 0.6325 µM), 0.875; with Tosedostat + Olaparib (first compound 2 µM) it was 0.587; in assay [2] (first compound 0.253 µM) it was 0.256. Further, the relative viability was determined as 0.253 in assay [2] (first compound 0.8 µM); 0.279 in assay [2] (first compound 2.53 µM); 0.271 in assay [2] (first compound 8 µM); 0.442 in assay [3] (first compound 0.253 µM); 0.43 in assay [3] (first compound 0.8 µM); 0.405 in assay [3] (first compound 2.53 µM). Moreover, the relative viability in assay [3] (first compound 8 µM) was 0.479.

Turning to A549, the relative viability was found to be 0.461 in assay [1] (first compound 0.253 µM); 0.383 in assay [1] (first compound 0.8 µM); 0.316 in assay [1] (first compound 2.53 µM); 0.319 in assay [1] (first compound 8 µM); 0.42 with Tosedostat + Olaparib (first compound 0.02 µM); 0.247 with Tosedostat + Olaparib (first compound 0.06325 µM). Also, the relative viability was 0.359 in the assay with Tosedostat + Olaparib (first compound 0.2 µM), 0.26 with Tosedostat + Olaparib (first compound 0.6325 µM) and 0.306 with Tosedostat + Olaparib (first compound 2 µM).

Take NCI-H522: the relative viability worked out at 0.637 with Tosedostat + Olaparib (first compound 0.02 µM); 0.644 with Tosedostat + Olaparib (first compound 0.06325 µM); 0.658 with Tosedostat + Olaparib (first compound 0.2 µM); 0.788 with Tosedostat + Olaparib (first compound 0.6325 µM); 0.637 with Tosedostat + Olaparib (first compound 2 µM); 0.725 in assay [2] (first compound 0.253 µM). The relative viability in assay [2] (first compound 0.8 µM) was 0.659; in assay [2] (first compound 2.53 µM) it was 0.699; in assay [2] (first compound 8 µM), 0.693; in assay [3] (first compound 0.253 µM) it was 0.785; in assay [3] (first compound 0.8 µM), 0.852; in assay [3] (first compound 2.53 µM), 0.783. Moreover, the relative viability in assay [3] (first compound 8 µM) is 0.924.

For the cell line NCI-H1623, the relative viability was found to be 0.36 in assay [2] (first compound 0.253 µM), 0.457 in assay [2] (first compound 0.8 µM), 0.392 in assay [2] (first compound 2.53 µM) and 0.429 in assay [2] (first compound 8 µM).

In the case of SW 900, the relative viability amounted to 0.784 with Tosedostat + Olaparib (first compound 0.02 µM); 1.02 with Tosedostat + Olaparib (first compound 0.06325 µM); 0.983 in the assay with Tosedostat + Olaparib (first compound 0.2 µM); 0.752 in the assay with Tosedostat + Olaparib (first compound 0.6325 µM); 0.629 with Tosedostat + Olaparib (first compound 2 µM); 0.637 in assay [2] (first compound 2.53 µM). Further, the relative viability in assay [2] (first compound 8 µM) was determined as 0.41; in assay [3] (first compound 0.8 µM), 0.749; in assay [3] (first compound 2.53 µM), 0.862; in assay [3] (first compound 8 µM), 0.621.

Regarding NCI-H1395, the relative viability turned out to be 0.461 with Tosedostat + Olaparib (first compound 0.02 µM); 0.463 with Tosedostat + Olaparib (first compound 0.06325 µM); 0.469 with Tosedostat + Olaparib (first compound 0.2 µM); 0.412 with Tosedostat + Olaparib (first compound 0.6325 µM); 0.402 in the assay with Tosedostat + Olaparib (first compound 2 µM); 0.641 in assay [2] (first compound 0.253 µM). For the same cell line, the relative viability worked out at 0.588 in assay [2] (first compound 0.8 µM); 0.639 in assay [2] (first compound 2.53 µM); 0.595 in assay [2] (first compound 8 µM); 0.963 in assay [3] (first compound 0.253 µM); 0.978 in assay [3] (first compound 0.8 µM); 0.89 in assay [3] (first compound 2.53 µM). In addition, the relative viability in assay [3] (first compound 8 µM) came to 1.

Turning to IA-LM, the relative viability in assay [1] (first compound 0.253 µM) is 0.415; in assay [1] (first compound 0.8 µM), 0.266; in assay [1] (first compound 2.53 µM) it was 0.288; in assay [1] (first compound 8 µM), 0.34; with Tosedostat + Olaparib (first compound 0.02 µM), 0.839; with Tosedostat + Olaparib (first compound 0.06325 µM) it was 0.869. The relative viability in the assay with Tosedostat + Olaparib (first compound 0.2 µM) stood at 0.655; with Tosedostat + Olaparib (first compound 0.6325 µM) it was 0.814; with Tosedostat + Olaparib (first compound 2 µM), 0.662.

EBC-1: the relative viability turned out to be 0.216 in assay [1] (first compound 0.253 µM); 0.171 in assay [1] (first compound 0.8 µM); 0.179 in assay [1] (first compound 2.53 µM); 0.202 in assay [1] (first compound 8 µM); 0.661 with Tosedostat + Olaparib (first compound 0.02 µM); 0.637 in the assay with Tosedostat + Olaparib (first compound 0.06325 µM). Besides, the relative viability was 0.546 with Tosedostat + Olaparib (first compound 0.2 µM), 0.442 in the assay with Tosedostat + Olaparib (first compound 0.6325 µM) and 0.409 with Tosedostat + Olaparib (first compound 2 µM).

These data come from the supplement of paper PMC10307832.
